Results published in US10576064B2, “Spiro[3H-indole-3,2′-pyrrolidin]-2(1H)-one compounds and derivatives as MDM2-P53 inhibitors” (Boehringer Ingelheim International GmbH, priority 2014, dated 2020).

Target: p53-MDM2 interaction (GST-MDM2 protein aa 23-117 / biotinylated p53 wt peptide) (Homo sapiens (Human), UniProt Q00987)
Assay: MDM2-p53 Inhibition AlphaScreen
Assay type: biochemical
Conditions: 20 nM GST-MDM2 (aa 23-117), 20 nM biotinylated p53 wt peptide
Description: MDM2-p53 Inhibition AlphaScreen

Q: For `O=C1NCC[C@H]2[C@@H]1[C@H](c1cccc(Cl)c1F)[C@]1(C(=O)Nc3cc(Cl)ccc31)N2CC1CC1` [Compound I-1], which IC50 is on record?
A: 0.086 µM

Q: Which IC50 does the source give for `O=C1NCC[C@H]2[C@@H]1[C@H](c1cccc(Cl)c1F)[C@]1(C(=O)Nc3cc(Cl)ccc31)N2CC1CC1` [Compound I-2] here?
A: 0.112 µM

Q: With `O=C1NCC[C@H]2[C@@H]1[C@H](c1cccc(Cl)c1)[C@]1(C(=O)Nc3cc(Cl)ccc31)N2CC1CC1` [Compound I-3] as the molecule, how does the IC50 read?
A: 0.263 µM

Q: How did the IC50 turn out when `CCOc1cccc(CN2[C@H]3CCNC(=O)[C@H]3[C@H](c3cccc(Cl)c3F)[C@]23C(=O)Nc2cc(Cl)ccc23)c1` [Compound I-5] was run?
A: 0.017 µM

Q: With `CCOc1cccc(CN2[C@H]3CCNC(=O)[C@H]3[C@H](c3cccc(Cl)c3)[C@]23C(=O)Nc2cc(Cl)ccc23)c1` [Compound I-7] as the molecule, how does the IC50 read?
A: 0.03 µM

Q: Which IC50 does the source give for `CCOc1cccc(CN2[C@H]3CCNC(=O)[C@H]3[C@H](c3cccc(Cl)c3F)[C@]23C(=O)Nc2nc(Cl)ccc23)c1` [Compound I-9] here?
A: 0.03 µM

Q: For `O=C1NCC[C@H]2[C@@H]1[C@H](c1cc(Br)cc(Cl)c1F)[C@]1(C(=O)Nc3cc(Cl)ccc31)N2CC1CC1` [Compound I-11], which IC50 is on record?
A: 0.462 µM

Q: How did the IC50 turn out when `CC1CC1CN1[C@H]2CCNC(=O)[C@H]2[C@H](c2cccc(Cl)c2F)[C@]12C(=O)Nc1cc(Cl)ccc12` (stereo partly shown) [Compound I-13] was run?
A: 0.272 µM

Q: `CC(C)(C)CN1[C@H]2CCNC(=O)[C@H]2[C@H](c2cccc(Cl)c2F)[C@]12C(=O)Nc1cc(Cl)ccc12` [Compound I-15] was tested. Which IC50 did it give?
A: 0.152 µM

Q: With `O=C1NCC[C@H]2[C@@H]1[C@H](c1cccc(Cl)c1F)[C@]1(C(=O)Nc3cc(Cl)c(F)cc31)N2CC1CC1` [Compound I-17] as the molecule, how does the IC50 read?
A: 0.324 µM

Q: How did the IC50 turn out when `O=C1NCC[C@H]2[C@@H]1[C@H](c1cccc(Cl)c1F)[C@]1(C(=O)Nc3cc(Cl)ccc31)N2CC1CCC1` [Compound I-19] was run?
A: 0.24 µM

Q: `O=C1NCC[C@H]2[C@@H]1[C@H](c1cccc(Cl)c1F)[C@]1(C(=O)Nc3cc(Br)ccc31)N2CC1CC1` [Compound I-21] was tested. Which IC50 did it give?
A: 0.064 µM

Q: With `Cc1ccc2c(c1)NC(=O)[C@]21[C@@H](c2cccc(Cl)c2F)[C@@H]2C(=O)NCC[C@@H]2N1CC1CC1` [Compound I-23] as the molecule, how does the IC50 read?
A: 0.29 µM

Q: `O=C1NCC[C@H]2[C@@H]1[C@H](c1cccc(Cl)c1F)[C@]1(C(=O)Nc3cc(I)ccc31)N2CC1CC1` [Compound I-25] was tested. Which IC50 did it give?
A: 0.324 µM

Q: `O=C1OCC[C@H]2[C@@H]1[C@H](c1cccc(Cl)c1F)[C@]1(C(=O)Nc3cc(Cl)ccc31)N2CC1CC1` [Compound I-37] was tested. Which IC50 did it give?
A: 0.292 µM

Q: `O=C1NC[C@H]2[C@@H]1[C@H](c1cccc(Cl)c1F)[C@]1(C(=O)Nc3cc(Cl)ccc31)N2CC1CC1` [Compound I-39] was tested. Which IC50 did it give?
A: 0.032 µM

Q: How did the IC50 turn out when `O=C1NC[C@H]2[C@@H]1[C@H](c1cccc(Cl)c1F)[C@]1(C(=O)Nc3cc(Cl)ccc31)N2CC1CC1` [Compound I-40] was run?
A: 0.033 µM

Q: With `CCOc1cccc(CN2[C@H]3CNC(=O)[C@H]3[C@H](c3cccc(Cl)c3F)[C@]23C(=O)Nc2cc(Cl)ccc23)c1` [Compound I-43] as the molecule, how does the IC50 read?
A: 0.008 µM

Q: How did the IC50 turn out when `COC(=O)c1ccc(N2CC[C@H]3[C@@H](C2=O)[C@H](c2cccc(Cl)c2F)[C@]2(C(=O)Nc4cc(Cl)ccc42)N3CC2CC2)cc1` [Compound I-63] was run?
A: 0.103 µM

Q: How did the IC50 turn out when `COC(=O)c1ccc(N2CC[C@H]3[C@@H](C2=O)[C@H](c2cccc(Cl)c2F)[C@]2(C(=O)Nc4cc(Cl)ccc42)N3CC2CC2C)cc1` (stereo partly shown) [Compound I-69] was run?
A: 0.447 µM

Q: `CCOc1cccc(CN2[C@H]3CCN(c4ccc(C(=O)OC)cc4)C(=O)[C@H]3[C@H](c3cccc(Cl)c3F)[C@]23C(=O)Nc2cc(Cl)ccc23)c1` [Compound I-71] was tested. Which IC50 did it give?
A: 0.068 µM

Q: For `O=C1[C@@H]2[C@H](CCN1c1ccc(-c3nnn[nH]3)cc1)N(CC1CC1)[C@@]1(C(=O)Nc3cc(Cl)ccc31)[C@H]2c1cccc(Cl)c1F` [Compound I-72], which IC50 is on record?
A: 0.017 µM

Q: Which IC50 does the source give for `CC(C)(C)CN1[C@H]2CCN(c3ccc(S(C)(=O)=O)cc3)C(=O)[C@H]2[C@H](c2cccc(Cl)c2F)[C@]12C(=O)Nc1cc(Cl)ccc12` [Compound I-74] here?
A: 0.342 µM

Q: For `CS(=O)(=O)c1ccc(N2CC[C@H]3[C@@H](C2=O)[C@H](c2cccc(Cl)c2F)[C@]2(C(=O)Nc4cc(Cl)ccc42)N3CC2CC2)cc1` [Compound I-76], which IC50 is on record?
A: 0.042 µM

Q: How did the IC50 turn out when `CC1CC1CN1[C@H]2CCN(c3ccc(S(C)(=O)=O)cc3)C(=O)[C@H]2[C@H](c2cccc(Cl)c2F)[C@]12C(=O)Nc1cc(Cl)ccc12` (stereo partly shown) [Compound I-78] was run?
A: 0.12 µM

Q: How did the IC50 turn out when `CNS(=O)(=O)c1ccc(N2CC[C@H]3[C@@H](C2=O)[C@H](c2cccc(Cl)c2F)[C@]2(C(=O)Nc4cc(Cl)ccc42)N3CC2CC2)cc1` [Compound I-80] was run?
A: 0.093 µM

Q: `COC(=O)c1ccc(N2CC[C@H]3[C@@H](C2=O)[C@H](c2cccc(Cl)c2F)[C@]2(C(=O)Nc4cc(Cl)ccc42)N3CC2CC2C)c(OC)c1` (stereo partly shown) [Compound I-82] was tested. Which IC50 did it give?
A: 1.02 µM

Q: `COC(=O)c1ccc(N2CC[C@H]3[C@@H](C2=O)[C@H](c2cccc(Cl)c2F)[C@]2(C(=O)Nc4cc(Cl)ccc42)N3CC2CC2C)c(F)c1` (stereo partly shown) [Compound I-84] was tested. Which IC50 did it give?
A: 1.18 µM

Q: With `N#Cc1ccc(N2CC[C@H]3[C@@H](C2=O)[C@H](c2cccc(Cl)c2F)[C@]2(C(=O)Nc4cc(Cl)ccc42)N3CC2CC2)cc1` [Compound I-86] as the molecule, how does the IC50 read?
A: 0.159 µM

Q: How did the IC50 turn out when `COCc1cc(N2CC[C@H]3[C@@H](C2=O)[C@H](c2cccc(Cl)c2F)[C@]2(C(=O)Nc4cc(Cl)ccc42)N3CC2CC2)ccn1` [Compound I-90] was run?
A: 0.124 µM

Q: Which IC50 does the source give for `O=C1[C@@H]2[C@H](CCN1c1ccncc1)N(CC1CC1)[C@@]1(C(=O)Nc3cc(Cl)ccc31)[C@H]2c1cccc(Cl)c1F` [Compound I-92] here?
A: 0.193 µM

Q: How did the IC50 turn out when `CCOc1cccc(CN2[C@@H]3CCN(c4ccc(C(=O)OC)cc4)C(=O)[C@@H]3[C@@H](c3cccc(Cl)c3F)[C@@]23C(=O)Nc2cc(Cl)ccc23)c1` [Compound I-112] was run?
A: 3.29 µM

Q: With `COC(=O)c1ccc(N2C[C@H]3[C@@H](C2=O)[C@H](c2cccc(Cl)c2F)[C@]2(C(=O)Nc4cc(Cl)ccc42)N3CC2CC2)cc1` [Compound I-123] as the molecule, how does the IC50 read?
A: 0.038 µM

Q: For `COC(=O)c1ccc(N2C[C@H]3[C@@H](C2=O)[C@H](c2cccc(Cl)c2F)[C@]2(C(=O)Nc4cc(Cl)ccc42)N3CC2CC2)c(OC)c1` [Compound I-125], which IC50 is on record?
A: 0.347 µM

Q: For `O=C(O)c1ccc(N2CC[C@H]3[C@@H](C2=O)[C@H](c2cccc(Cl)c2F)[C@]2(C(=O)Nc4cc(Cl)ccc42)N3CC2CC2)cc1` [Compound I-170], which IC50 is on record?
A: 0.011 µM

Q: Which IC50 does the source give for `O=C(O)c1ccc(N2CC[C@H]3[C@@H](C2=O)[C@H](c2cccc(Cl)c2F)[C@]2(C(=O)Nc4cc(Cl)ccc42)N3CC2CC2)cc1` [Compound I-171] here?
A: 0.004 µM

Q: For `O=C(O)c1ccc(N2CC[C@@H]3[C@H](C2=O)[C@@H](c2cccc(Cl)c2F)[C@@]2(C(=O)Nc4cc(Cl)ccc42)N3CC2CC2)cc1` [Compound I-172], which IC50 is on record?
A: 0.302 µM

Q: With `O=C(O)c1ccc(N2CC[C@H]3[C@@H](C2=O)[C@H](c2cccc(Cl)c2F)[C@]2(C(=O)Nc4cc(Cl)c(F)cc42)N3CC2CC2)cc1` [Compound I-173] as the molecule, how does the IC50 read?
A: 0.029 µM

Q: `O=C(O)c1cccc(N2CC[C@H]3[C@@H](C2=O)[C@H](c2cccc(Cl)c2F)[C@]2(C(=O)Nc4cc(Cl)ccc42)N3CC2CC2)c1` [Compound I-175] was tested. Which IC50 did it give?
A: 2.13 µM

Q: `O=C(O)c1ccc(N2CC[C@H]3[C@@H](C2=O)[C@H](c2cccc(Cl)c2)[C@]2(C(=O)Nc4cc(Cl)ccc42)N3CC2CC2)cc1` [Compound I-177] was tested. Which IC50 did it give?
A: 0.016 µM

Q: Which IC50 does the source give for `COc1cc(C(=O)O)ccc1N1CC[C@H]2[C@@H](C1=O)[C@H](c1cccc(Cl)c1F)[C@]1(C(=O)Nc3cc(Cl)ccc31)N2CC1CC1` [Compound I-179] here?
A: 0.071 µM

Q: Which IC50 does the source give for `COc1cc(C(=O)O)ccc1N1CC[C@H]2[C@@H](C1=O)[C@H](c1cccc(Cl)c1)[C@]1(C(=O)Nc3cc(Cl)ccc31)N2CC1CC1` [Compound I-181] here?
A: 0.092 µM

Q: For `O=C(O)c1ccc(N2CC[C@H]3[C@@H](C2=O)[C@H](c2cccc(Cl)c2F)[C@]2(C(=O)Nc4cc(Cl)ccc42)N3CC2CC2)cn1` [Compound I-183], which IC50 is on record?
A: 0.01 µM

Q: For `CCOc1cccc(CN2[C@H]3CCN(c4ccc(C(=O)O)cc4)C(=O)[C@H]3[C@H](c3cccc(Cl)c3F)[C@]23C(=O)Nc2cc(Cl)ccc23)c1` [Compound I-185], which IC50 is on record?
A: 0.003 µM

Q: Which IC50 does the source give for `CCOc1cccc(CN2[C@H]3CCN(c4ccc(C(=O)O)cc4)C(=O)[C@H]3[C@H](c3cccc(Cl)c3F)[C@]23C(=O)Nc2cc(Cl)ccc23)c1` [Compound I-186] here?
A: 0.002 µM

Q: Which IC50 does the source give for `CCOc1cccc(CN2[C@H]3CCN(c4ccc(C(=O)O)cc4[N+](=O)[O-])C(=O)[C@H]3[C@H](c3cccc(Cl)c3F)[C@]23C(=O)Nc2cc(Cl)ccc23)c1` [Compound I-188] here?
A: 0.016 µM

Q: For `CC1CC1CN1[C@H]2CCN(c3ccc(C(=O)O)cc3F)C(=O)[C@H]2[C@H](c2cccc(Cl)c2F)[C@]12C(=O)Nc1cc(Cl)ccc12` (stereo partly shown) [Compound I-190], which IC50 is on record?
A: 0.045 µM

Q: How did the IC50 turn out when `O=C(O)c1ccc(N2CC[C@H]3[C@@H](C2=O)[C@H](c2cccc(Cl)c2F)[C@]2(C(=O)Nc4cc(Cl)ccc42)N3CC2CC2)c([N+](=O)[O-])c1` [Compound I-192] was run?
A: 0.04 µM

Q: `COc1cc(C(=O)O)ccc1N1CC[C@H]2[C@@H](C1=O)[C@H](c1cccc(Cl)c1F)[C@]1(C(=O)Nc3cc(Cl)ccc31)N2CC1CC1C` (stereo partly shown) [Compound I-194] was tested. Which IC50 did it give?
A: 0.114 µM

Q: How did the IC50 turn out when `CC1CC1CN1[C@H]2CCN(c3ccc(C(=O)O)cc3)C(=O)[C@H]2[C@H](c2cccc(Cl)c2F)[C@]12C(=O)Nc1cc(Cl)ccc12` (stereo partly shown) [Compound I-196] was run?
A: 0.02 µM

Q: Which IC50 does the source give for `O=C(O)c1ccc(N2CC[C@H]3[C@@H](C2=O)[C@H](c2cccc(Cl)c2F)[C@]2(C(=O)Nc4cc(Cl)ccc42)N3CC2CCC2)cc1` [Compound I-198] here?
A: 0.027 µM

Q: `COc1cc(C(=O)O)ccc1N1CC[C@H]2[C@@H](C1=O)[C@H](c1cccc(Cl)c1F)[C@]1(C(=O)Nc3cc(Cl)ccc31)N2CC1CCC1` [Compound I-200] was tested. Which IC50 did it give?
A: 0.134 µM

Q: Which IC50 does the source give for `CC(C)(C)CN1[C@H]2CCN(c3ccc(C(=O)O)cc3)C(=O)[C@H]2[C@H](c2cccc(Cl)c2F)[C@]12C(=O)Nc1cc(Cl)ccc12` [Compound I-202] here?
A: 0.048 µM

Q: How did the IC50 turn out when `O=C(O)c1ccc(N2CC[C@H]3[C@@H](C2=O)[C@H](c2cccc(Cl)c2F)[C@]2(C(=O)Nc4cc(Br)ccc42)N3CC2CC2)cc1` [Compound I-204] was run?
A: 0.015 µM

Q: How did the IC50 turn out when `Cc1cc(N2CC[C@H]3[C@@H](C2=O)[C@H](c2cccc(Cl)c2F)[C@]2(C(=O)Nc4cc(Cl)ccc42)N3CC2CC2)cc(C)c1C(=O)O` [Compound I-206] was run?
A: 0.046 µM
